For 34 molecules, Kd, EC50 and IC50 results are on record in US11518764B2, “Substituted heteroaryls as inhibitors of the BCL6 BTB domain protein-protein interaction” (Ontario Institute for Cancer Research (OICR), priority 2018, dated 2022).

One test has as its target BCL6 BTB domain (Homo sapiens (Human), UniProt P41182). Kind of test: Surface plasmon resonance (SPR) assay. It counts as binding. The settings on record: BCL6 BTB domain captured on SA chip, single cycle kinetics. For orientation: SPR reads the build-up and loss of mass on a sensor chip optically.
In test [1] the test system is BCL6 reporter construct (3xBCL6-TK-Luc) in SuDHL4 cells. Kind of test: Cell-based luciferase assay. The method in brief:
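SuDHL4 cells stably carrying a 3×BCL6-site TK-promoter firefly luciferase reporter, seeded at 15,000 cells/well, were dosed over a 10-point range (top 10 uM) and grown two days at 37 °C, 5% CO2. Luminescence then read after adding neolite reagent at room temperature.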

For another test, the system named is Karpas422 cells. In words: Tumor cell growth inhibition assay. The format is cell-based. The method in brief: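 Karpas422 cells (2,000/well) in Alpha-MEM with 10% FBS dosed across 10 concentrations (top 5 uM) and grown six days at 37° C., 5% CO2. Viability read as ATPlite luminescence.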
Setting [2] is: Homo sapiens, SU-DHL-4, 48 h, read-out: Luciferase-Assay EC50, uM), SuDHL4-3xBCL6-TK-Luc cells, two days, high dose 10 uM.
Where [3] appears, read: Homo sapiens, KARPAS-422, 144 h, read-out: Tumor Growth Inhibition in Karpas-422 (IC50, uM), Karpas422 cells, six days, ATPlite.

In general, Kd refers to a measure of binding affinity in units of concentration. Low values mean a tighter complex, high ones a looser complex. For orientation: EC50 means the concentration that produces a half-maximal response. A word on the IC50: it is the concentration at which inhibition is half-maximal.

Where two headings read alike, the source gives them in different places. Some results are limits rather than exact numbers.

Consider `C[C@H]1CN(C)CCN1c1cc(NC(=O)Cn2cc(-c3cc(Cl)c(O)c(C(N)=O)c3)c3c(=O)n(C)c(C(F)(F)F)nc32)c(Cl)c(F)n1` [Compound I-368], for which the affinity on BCL6 BTB domain, expressed as Kd, was 83.5 nM. Besides, the EC50 in test [1] (setting [2]) was 0.369 µM. Besides, the IC50 with Karpas422 cells (setting [3]) amounted to 0.407 µM.
For `CN1CCOC2(CCN(c3cc(NC(=O)Cn4cc(-c5cc(F)c(O)c(C(N)=O)c5)c5c(=O)n(C)cnc54)c(Cl)cn3)C2)C1` (stereo not drawn) [Compound I-177], in that order: 5.88 nM, 0.629 µM and 0.331 µM.
For `Cc1nc2c(c(-c3cc(C(N)=O)c(O)c(F)c3F)cn2CC(=O)Nc2cc(N3CCN(C4COC4)C[C@@H]3C)ncc2Cl)c(=O)n1C` [Compound I-344], in that order: 13.8 nM, 0.317 µM and 0.701 µM.
For `CN1CCOC2(CCN(c3cc(NC(=O)Cn4cc(-c5cc(Cl)c(O)c(C(N)=O)c5)c5c(=O)n(C)cnc54)c(Cl)cn3)C2)C1` (stereo not drawn) [Compound I-132], in that order: 10 nM, 0.192 µM and 0.067 µM.
`C[C@H]1CCCN1c1cc(NC(=O)Cn2cc(-c3cc(Cl)c(O)c(C(N)=O)c3)c3c(=O)n(C)cnc32)c(Cl)cn1` [Compound I-136] returned a Kd at BCL6 BTB domain of 55 nM. The concentration giving a half-maximal response (EC50) in test [1] (setting [2]) came out at 0.578 µM. Besides, the IC50 in the test with Karpas422 cells (setting [3]) came to 0.96 µM.
The corresponding values for `CCN1CCN(c2cc(NC(=O)Cn3cc(-c4cc(F)c(O)c(C(N)=O)c4)c4c(=O)n(C)cnc43)c(Cl)c(F)n2)[C@@H](C)C1` [Compound I-428] are 2.35 nM, 0.102 µM and 0.0682 µM.
For the molecule `CO[C@@H]1CN(c2cc(NC(=O)Cn3cc(-c4cc(C(N)=O)c(O)c(F)c4F)c4c(=O)n(C)cnc43)c(Cl)c(F)n2)C[C@@H]1F` [Compound I-442], the Kd at BCL6 BTB domain worked out at 21.8 nM. In addition, the 50% effective concentration (EC50) in test [1] (setting [2]) stood at 0.386 µM. Also, in the test on Karpas422 cells (setting [3]), the IC50 was 0.266 µM.
For `Cn1cnc2c(c(-c3cc(C(N)=O)c(O)c(F)c3F)cn2CC(=O)Nc2cc(N3CCCC3)ncc2Cl)c1=O` [Compound I-298], in that order: 32.4 nM, 0.399 µM and 0.883 µM.
The corresponding values for `Cc1cc(-c2cn(CC(=O)Nc3cc(N4CCOCC4)ncc3Cl)c3ccn(C)c(=O)c23)cc(C(N)=O)c1O` [Compound I-142] are 2200 nM, 4.02 µM and above 10 µM.
For `C[C@H]1COCCN1c1cc(NC(=O)Cn2cc(-c3cc(Cl)c(O)c(C(N)=O)c3)c3c(=O)n(C)c(C(F)(F)F)nc32)c(Cl)cn1` [Compound I-216], in that order: 76.4 nM, 0.97 µM and 0.831 µM.
For `C[C@H]1CNCCN1c1cc(NC(=O)Cn2cc(-c3cc(C(N)=O)c(O)c4c3OCO4)c3c(=O)n(C)cnc32)c(Cl)c(F)n1` [Compound I-349], at BCL6 BTB domain, the equilibrium dissociation constant (Kd) is 3.29 nM. Further, the EC50 in test [1] (setting [2]) stood at 0.131 µM. Also, the IC50 in the test with Karpas422 cells (setting [3]) came out at 0.0873 µM.
The corresponding values for `COc1c(O)c(C(N)=O)cc(-c2cn(CC(=O)Nc3cc(N4CCOCC4)ncc3F)c3ncn(C)c(=O)c23)c1F` [Compound I-197] are 218 nM, 4.01 µM and 10 µM.
For `CN1CCN(c2cc(NC(=O)Cn3cc(-c4cc(F)c(O)c(C(N)=O)c4)c4c(=O)n(CC#Cc5cnn(C)c5)cnc43)c(Cl)cn2)CC1` [Compound I-478], in that order: 4.58 nM, 0.366 µM and 0.182 µM.
For `CC[C@H]1CN(c2cc(NC(=O)Cn3cc(-c4cc(Cl)c(O)c(C(N)=O)c4)c4c(=O)n(C)cnc43)c(Cl)cn2)CCO1` [Compound I-203], in that order: 30.6 nM, 0.222 µM and 0.187 µM.
Consider `CO[C@@H]1CN(c2cc(NC(=O)Cn3cc(-c4cc(Cl)c(O)c(C(N)=O)c4)c4c(=O)n(C)c(C)nc43)c(Cl)cn2)C[C@@H]1F` [Compound I-402], for which the affinity on BCL6 BTB domain, expressed as Kd, was 28 nM. Besides, in test [1] (setting [2]), the EC50 turned out to be 0.18 µM. Moreover, the IC50 in the test with Karpas422 cells (setting [3]) stood at 0.714 µM.
For `Cn1cnc2c(c(-c3cc(Cl)c(O)c(C(N)=O)c3)cn2CC(=O)Nc2ccc([N+](=O)[O-])cc2Cl)c1=O` [Compound I-385], in that order: 38.4 nM, 0.312 µM and 0.335 µM.
The corresponding values for `CN1CC2(CCN(c3cc(NC(=O)Cn4cc(-c5cc(F)c(O)c(C(N)=O)c5)c5c(=O)n(C)cnc54)c(Cl)cn3)C2)C1` [Compound I-484] are 40.3 nM, 21.6 µM and 10 µM.
For `CN(C)c1cc(NC(=O)Cn2cc(-c3cc(F)c(O)c(C(N)=O)c3)c3c(=O)n(C)cnc32)c(Cl)c(F)n1` [Compound I-423], in that order: 5.06 nM, 0.143 µM and 0.0391 µM.
With `Cn1cnc2c(c(-c3cc(Cl)c(O)c(C(N)=O)c3)cn2CC(=O)Nc2ccc(F)cc2Cl)c1=O` [Compound I-383], the Kd on BCL6 BTB domain turned out to be 460 nM. In addition, the EC50 in test [1] (setting [2]) was 2.44 µM. The IC50 in the test with Karpas422 cells (setting [3]) was 1.05 µM.
The corresponding values for `C[C@@H]1CN(c2cc(NC(=O)Cn3cc(-c4cc(C(N)=O)c(O)c(F)c4F)c4c(=O)n(C)cnc43)c(Cl)cn2)C[C@H](C)N1C` [Compound I-353] are 75 nM, 1.35 µM and 0.648 µM.
The corresponding values for `NC(=O)c1cc(-c2cn(CC(=O)Nc3cc(N4CC5CCC(C4)O5)ncc3Cl)c3nc[nH]c(=O)c23)cc(Cl)c1O` [Compound I-242] are 5.01 nM, 0.483 µM and 0.312 µM.
The corresponding values for `C[C@H]1COCCN1c1cc(NC(=O)Cn2cc(-c3cc(F)c(O)c(C(N)=O)c3F)c3c(=O)n(C)cnc32)c(Cl)c(F)n1` [Compound I-472] are 55.7 nM, 3.8 µM and 10 µM.
Turning to `Cn1cnc2c(c(-c3cc(Cl)c(O)c(C(N)=O)c3)cn2CC(=O)Nc2cc(N3C4COCC5CC543)ncc2Cl)c1=O` (stereo not drawn) [Compound I-281], the dissociation constant Kd at BCL6 BTB domain worked out at 60.8 nM. Besides, the concentration for a half-maximal effect (EC50) in test [1] (Homo sapiens, SU-DHL-4, 48 h, SuDHL4-3xBCL6-TK-Luc cells, two days, high dose 10 uM, read-out: Luciferase-Assay EC50) was found to be 2.88 µM. Besides, the half-maximal inhibitory concentration (IC50) with Karpas422 cells (Homo sapiens, KARPAS-422, 144 h, Karpas422 cells, six days, ATPlite, read-out: Tumor Growth Inhibition in Karpas-422 (IC50)) was determined as 2.18 µM.
As for `C[C@H]1COCCN1c1cc(NC(=O)Cn2cc(-c3cc(F)c(O)c(C(N)=O)c3)c3c(=O)n(C)cnc32)c(Cl)cn1` [Compound I-157], the Kd on BCL6 BTB domain came to 6.1 nM. In addition, the EC50 in test [1] (setting [2]) came out at 0.18 µM. Moreover, the IC50 in the test with Karpas422 cells (setting [3]) is 0.148 µM.
For the molecule `Cn1cnc2c(c(-c3cc(Cl)c(O)c(C(N)=O)c3)cn2CC(=O)Nc2cc(N3CCN4C(=O)CCC4C3)ncc2Cl)c1=O` (stereo not drawn) [Compound I-236], binding at BCL6 BTB domain was put at a Kd of 16.6 nM. In addition, in test [1] (setting [2]), the EC50 came out at 0.739 µM. Also, the half-inhibitory concentration (IC50) with Karpas422 cells (setting [3]) turned out to be 0.385 µM.
The corresponding values for `COC[C@H]1COCCN1c1cc(NC(=O)Cn2cc(-c3cc(Cl)c(O)c(C(N)=O)c3)c3c(=O)[nH]cnc32)c(Cl)cn1` [Compound I-164] are 7.76 nM, 0.601 µM and 0.251 µM.
Regarding `C[C@H]1CN(CC2CC2)CCN1c1cc(NC(=O)Cn2cc(-c3cc(F)c(O)c(C(N)=O)c3)c3c(=O)n(C)cnc32)c(Cl)c(F)n1` [Compound I-445], on BCL6 BTB domain, binding was put at a Kd of 7.32 nM. Further, the EC50 in test [1] (setting [2]) amounted to 0.0854 µM. In the test with Karpas422 cells (setting [3]), the IC50 was found to be 0.0622 µM.
For `CN1CC2CN(c3cc(NC(=O)Cn4cc(-c5cc(F)c(O)c(C(N)=O)c5)c5c(=O)n(C)cnc54)c(Cl)cn3)CC2C1` (stereo not drawn) [Compound I-287], in that order: 18.6 nM, 1.71 µM and 1.44 µM.
The molecule `Cn1cnc2c(c(-c3cc(Cl)c(O)c(C(N)=O)c3)cn2CC(=O)Nc2cc(N3CCOC4(CCC4)C3)ncc2Cl)c1=O` [Compound I-350] had a Kd at BCL6 BTB domain of 63.9 nM. In test [1] (setting [2]), the concentration for a half-maximal effect (EC50) is 0.486 µM. The IC50 with Karpas422 cells (setting [3]) stood at 0.897 µM.
In the case of `Cc1nc2c(c(-c3cc(F)c(O)c(C(N)=O)c3)cn2CC(=O)Nc2cc(N3CCN(C)C[C@@H]3C)ncc2Cl)c(=O)n1C` [Compound I-207], binding at BCL6 BTB domain was characterised by a dissociation constant (Kd) of 4.45 nM. The EC50 in test [1] (setting [2]) is 0.0429 µM. Besides, in the test with Karpas422 cells (setting [3]), the IC50 is 0.0703 µM.
`Cn1cnc2c(c(-c3cc(Cl)c(O)c(C(N)=O)c3)cn2CC(=O)Nc2cc(N3CCOC4COCC43)ncc2Cl)c1=O` (stereo not drawn) [Compound I-277]: binding on BCL6 BTB domain was characterised by a dissociation constant (Kd) of 21 nM. Also, the concentration for a half-maximal effect (EC50) in test [1] (setting [2]) came out at 0.418 µM. In the test on Karpas422 cells (setting [3]), the IC50 was determined as 0.255 µM.
For the molecule `C[C@@H]1CN(c2cc(NC(=O)Cn3cc(-c4cc(C(N)=O)c(O)c(Cl)c4F)c4c(=O)n(C)cnc43)c(Cl)cn2)C[C@H](C)O1` [Compound I-192], on BCL6 BTB domain, the equilibrium dissociation constant (Kd) came out at 757 nM. In test [1] (read-out: Luciferase-Assay EC50, SuDHL4-3xBCL6-TK-Luc cells, two days, high dose 10 uM), the 50% effective concentration (EC50) worked out at 3.98 µM. In addition, the IC50 in the test with Karpas422 cells (read-out: Tumor Growth Inhibition in Karpas-422 (IC50), Karpas422 cells, six days, ATPlite) stood at 1.24 µM.
On BCL6 BTB domain, `Cn1ccc2c(c(-c3cc(F)c(O)c(C(N)=O)c3)cn2CC(=O)Nc2cc(N3CCOCC3)ncc2Cl)c1=O` [Compound I-140] showed a dissociation constant (Kd) of 317 nM. Further, in test [1] (setting [2]), the EC50 was 1.33 µM. Also, in the test on Karpas422 cells (setting [3]), the IC50 amounted to 1.28 µM.
The corresponding values for `C[C@H]1CN(C2COC2)CCN1c1cc(NC(=O)Cn2cc(-c3cc(Cl)c(O)c(C(N)=O)c3)c3c(=O)n(C)cnc32)c(Cl)c(F)n1` [Compound I-413] are 6.15 nM, 0.06 µM and 0.0822 µM.
